In patent US20220411439A1, “POLYMORPHS OF A MACROCYCLIC KINASE INHIBITOR” (TURNING POINT THERAPEUTICS, INC., priority 2019, published 2022):

Assays:
Assay in all cases: Biochemical kinase assay
Conditions in all cases: 10 μM ATP
RET (A883F) = biological target: T1, RET (A883F) (Homo sapiens, UniProt P07949, A883F)
T1 construct: purchased Reaction Biology Corporation (contract assay)
Protocol: (§1) The biochemical kinase assay was performed at Reaction Biology Corporation (www.reactionbiology.com, Malvern, Pa.) following the procedures described in the reference (Anastassiadis T, et al Nat Biotechnol. 2011, 29, 1039). Specific kinase/substrate pairs along with required cofactors were prepared in reaction buffer; 20 mM Hepes pH 7.5, 10 mM MgCl2, 1 mM EGTA, 0.02% Brij35, 0.02 mg/ml BSA, 0.1 mM Na3VO4, 2 mM DTT, 1% DMSO. Compounds were delivered into the reaction, followed ˜20 minutes later by addition of a mixture of ATP (Sigma, St. Louis Mo.) and ^33P ATP (Perkin Elmer, Waltham Mass.) to a final concentration of 10 μM. Reactions were carried out at room temperature for 120 min, followed by spotting of the reactions onto P81 ion exchange filter paper (Whatman Inc., Piscataway, N.J.). Unbound phosphate was removed by extensive washing of filters in 0.75% phosphoric acid. […] IC50 values and curve fits were obtained using Prism (GraphPad Software).

RET (E762Q) = biological target: T2, RET (E762Q) (Homo sapiens, UniProt P07949, E762Q)
T2 construct: purchased Reaction Biology Corporation (contract assay)
T2 sequence (P07949 29-1114 E762Q): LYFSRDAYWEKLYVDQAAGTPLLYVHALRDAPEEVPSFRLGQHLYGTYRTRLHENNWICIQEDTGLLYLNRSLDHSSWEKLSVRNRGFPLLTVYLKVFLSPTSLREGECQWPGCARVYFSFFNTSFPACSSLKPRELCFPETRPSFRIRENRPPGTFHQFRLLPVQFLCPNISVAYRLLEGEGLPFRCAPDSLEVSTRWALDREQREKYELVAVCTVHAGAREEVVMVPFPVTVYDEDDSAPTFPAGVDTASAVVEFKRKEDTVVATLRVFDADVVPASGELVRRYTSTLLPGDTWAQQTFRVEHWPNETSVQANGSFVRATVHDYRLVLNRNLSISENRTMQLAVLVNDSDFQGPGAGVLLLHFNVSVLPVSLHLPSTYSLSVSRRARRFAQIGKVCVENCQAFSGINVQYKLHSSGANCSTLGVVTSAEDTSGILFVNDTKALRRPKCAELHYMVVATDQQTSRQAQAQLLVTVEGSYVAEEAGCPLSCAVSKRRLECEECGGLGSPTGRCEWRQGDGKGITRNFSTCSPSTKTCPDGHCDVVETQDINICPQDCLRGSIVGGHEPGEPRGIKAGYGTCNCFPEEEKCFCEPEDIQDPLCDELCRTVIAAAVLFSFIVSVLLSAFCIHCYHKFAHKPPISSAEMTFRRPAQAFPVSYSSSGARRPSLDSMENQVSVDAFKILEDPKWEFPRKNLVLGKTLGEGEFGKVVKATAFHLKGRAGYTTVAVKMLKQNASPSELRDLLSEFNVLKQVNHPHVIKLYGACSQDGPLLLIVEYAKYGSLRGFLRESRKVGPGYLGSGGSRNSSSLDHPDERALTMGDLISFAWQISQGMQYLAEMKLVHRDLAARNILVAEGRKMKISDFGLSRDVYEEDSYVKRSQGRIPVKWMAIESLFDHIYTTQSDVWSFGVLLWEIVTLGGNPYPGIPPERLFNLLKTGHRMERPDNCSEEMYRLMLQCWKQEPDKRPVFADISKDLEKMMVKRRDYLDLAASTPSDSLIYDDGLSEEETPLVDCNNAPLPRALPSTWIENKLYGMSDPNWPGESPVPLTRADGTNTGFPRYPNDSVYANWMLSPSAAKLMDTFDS
Protocol: as §1

RET (G691S) = biological target: T3, RET (G691S) (Homo sapiens, UniProt P07949, G691S)
T3 construct: purchased Reaction Biology Corporation (contract assay)
T3 sequence (P07949 29-1114 G691S): as the sequence (P07949 29-1114 E762Q) above, with G663S, Q734E counted along it
Protocol: as §1

RET (L790F) = biological target: T4, RET (L790F) (Homo sapiens, UniProt P07949, L790F)
T4 construct: purchased Reaction Biology Corporation (contract assay)
T4 sequence (P07949 29-1114 L790F): as the sequence (P07949 29-1114 E762Q) above, with Q734E, L762F counted along it
Protocol: as §1

RET (M918T) = biological target: T5, RET (M918T) (Homo sapiens, UniProt P07949, M918T)
T5 construct: purchased Reaction Biology Corporation (contract assay)
T5 sequence (P07949 29-1114 M918T): as the sequence (P07949 29-1114 E762Q) above, with Q734E, M890T counted along it
Protocol: as §1

RET (R749T) = biological target: T6, RET (R749T) (Homo sapiens, UniProt P07949, R749T)
T6 construct: purchased Reaction Biology Corporation (contract assay)
T6 sequence (P07949 29-1114 R749T): as the sequence (P07949 29-1114 E762Q) above, with R721T, Q734E counted along it
Protocol: as §1

RET (R813Q) = biological target: T7, RET (R813Q) (Homo sapiens, UniProt P07949, R813Q)
T7 construct: purchased Reaction Biology Corporation (contract assay)
T7 sequence (P07949 29-1114 R813Q): as the sequence (P07949 29-1114 E762Q) above, with Q734E, R785Q counted along it
Protocol: as §1

RET (S891A) = biological target: T8, RET (S891A) (Homo sapiens, UniProt P07949, S891A)
T8 construct: purchased Reaction Biology Corporation (contract assay)
T8 sequence (P07949 29-1114 S891A): as the sequence (P07949 29-1114 E762Q) above, with Q734E, S863A counted along it
Protocol: as §1

RET (S904A) = biological target: T9, RET (S904A) (Homo sapiens, UniProt P07949, S904A)
T9 construct: purchased Reaction Biology Corporation (contract assay)
T9 sequence (P07949 29-1114 S904A): as the sequence (P07949 29-1114 E762Q) above, with Q734E, S876A counted along it
Protocol: as §1

RET (S904F) = biological target: T10, RET (S904F) (Homo sapiens, UniProt P07949, S904F)
T10 construct: purchased Reaction Biology Corporation (contract assay)
T10 sequence (P07949 29-1114 S904F): as the sequence (P07949 29-1114 E762Q) above, with Q734E, S876F counted along it
Protocol: as §1

RET (V778I) = biological target: T11, RET (V778I) (Homo sapiens, UniProt P07949, V778I)
T11 construct: purchased Reaction Biology Corporation (contract assay)
T11 sequence (P07949 29-1114 V778I): as the sequence (P07949 29-1114 E762Q) above, with Q734E, V750I counted along it
Protocol: as §1

RET (V804E) = biological target: T12, RET (V804E) (Homo sapiens, UniProt P07949, V804E)
T12 construct: purchased Reaction Biology Corporation (contract assay)
T12 sequence (P07949 29-1114 V804E): as the sequence (P07949 29-1114 E762Q) above, with Q734E, V776E counted along it
Protocol: as §1

RET (V804L) = biological target: T13, RET (V804L) (Homo sapiens, UniProt P07949, V804L)
T13 construct: purchased Reaction Biology Corporation (contract assay)
T13 sequence (P07949 29-1114 V804L): as the sequence (P07949 29-1114 E762Q) above, with Q734E, V776L counted along it
Protocol: as §1

RET (V804M) = biological target: T14, RET (V804M) (Homo sapiens, UniProt P07949, V804M)
T14 construct: purchased Reaction Biology Corporation (contract assay)
T14 sequence (P07949 29-1114 V804M): as the sequence (P07949 29-1114 E762Q) above, with Q734E, V776M counted along it
Protocol: as §1

RET (Y791F) = biological target: T15, RET (Y791F) (Homo sapiens, UniProt P07949, Y791F)
T15 construct: purchased Reaction Biology Corporation (contract assay)
T15 sequence (P07949 29-1114 Y791F): as the sequence (P07949 29-1114 E762Q) above, with Q734E, Y763F counted along it
Protocol: as §1

RET (Y806H) = biological target: T16, RET (Y806H) (Homo sapiens, UniProt P07949, Y806H)
T16 construct: purchased Reaction Biology Corporation (contract assay)
T16 sequence (P07949 29-1114 Y806H): as the sequence (P07949 29-1114 E762Q) above, with Q734E, Y778H counted along it
Protocol: as §1

RET-CCDC6 (PTC1) = biological target: T17, RET-CCDC6 (PTC1) (Homo sapiens, UniProt P07949)
T17 construct: CCDC6 fragment (fusion partner); purchased Reaction Biology Corporation (contract assay); the other entry of the earlier key: CCDC6 (Q16204, Coiled-coil domain-containing protein 6)
T17 sequence (P07949 with tags, fused parts or gaps): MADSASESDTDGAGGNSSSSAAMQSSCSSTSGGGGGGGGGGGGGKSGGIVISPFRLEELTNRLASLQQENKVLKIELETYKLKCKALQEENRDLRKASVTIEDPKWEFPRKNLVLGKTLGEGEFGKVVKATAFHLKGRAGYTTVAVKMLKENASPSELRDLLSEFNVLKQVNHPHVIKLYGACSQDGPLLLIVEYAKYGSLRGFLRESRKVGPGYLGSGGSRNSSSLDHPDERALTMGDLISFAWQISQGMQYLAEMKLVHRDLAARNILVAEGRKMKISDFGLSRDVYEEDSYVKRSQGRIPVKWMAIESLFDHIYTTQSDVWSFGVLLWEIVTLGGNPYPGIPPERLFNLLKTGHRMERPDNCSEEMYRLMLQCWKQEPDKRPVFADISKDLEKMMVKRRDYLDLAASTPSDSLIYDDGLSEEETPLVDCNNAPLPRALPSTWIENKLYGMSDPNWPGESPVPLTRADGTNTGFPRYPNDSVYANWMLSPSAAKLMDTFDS
Protocol: as §1

FYN = biological target: T18, FYN (Homo sapiens, UniProt P06241)
T18 construct: purchased Reaction Biology Corporation (contract assay)
T18 sequence (P06241 whole entry): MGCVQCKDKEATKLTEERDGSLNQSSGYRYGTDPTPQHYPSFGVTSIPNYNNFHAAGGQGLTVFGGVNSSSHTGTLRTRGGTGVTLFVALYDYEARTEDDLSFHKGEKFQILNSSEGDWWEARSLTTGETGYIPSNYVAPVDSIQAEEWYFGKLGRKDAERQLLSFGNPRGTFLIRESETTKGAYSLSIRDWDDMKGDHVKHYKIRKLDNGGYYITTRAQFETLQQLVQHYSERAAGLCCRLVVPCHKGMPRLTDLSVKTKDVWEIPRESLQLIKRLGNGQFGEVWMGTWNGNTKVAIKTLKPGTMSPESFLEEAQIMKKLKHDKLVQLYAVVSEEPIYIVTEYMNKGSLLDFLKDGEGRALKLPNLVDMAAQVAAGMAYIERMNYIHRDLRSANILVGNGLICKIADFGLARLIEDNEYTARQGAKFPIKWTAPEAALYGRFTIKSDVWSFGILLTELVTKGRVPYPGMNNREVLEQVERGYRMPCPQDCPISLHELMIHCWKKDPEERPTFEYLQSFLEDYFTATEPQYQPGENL
Protocol: as §1, with “Specific” for “The biochemical kinase assay was performed at Reaction Biology Corporation (www.reactionbiology.com, Malvern, Pa.) following the procedures described in the reference (Anastassiadis T, et al Nat Biotechnol. 2011, 29, 1039). Specific”

HCK = biological target: T19, HCK (Homo sapiens, UniProt P08631)
T19 construct: purchased Reaction Biology Corporation (contract assay)
T19 sequence (P08631 whole entry): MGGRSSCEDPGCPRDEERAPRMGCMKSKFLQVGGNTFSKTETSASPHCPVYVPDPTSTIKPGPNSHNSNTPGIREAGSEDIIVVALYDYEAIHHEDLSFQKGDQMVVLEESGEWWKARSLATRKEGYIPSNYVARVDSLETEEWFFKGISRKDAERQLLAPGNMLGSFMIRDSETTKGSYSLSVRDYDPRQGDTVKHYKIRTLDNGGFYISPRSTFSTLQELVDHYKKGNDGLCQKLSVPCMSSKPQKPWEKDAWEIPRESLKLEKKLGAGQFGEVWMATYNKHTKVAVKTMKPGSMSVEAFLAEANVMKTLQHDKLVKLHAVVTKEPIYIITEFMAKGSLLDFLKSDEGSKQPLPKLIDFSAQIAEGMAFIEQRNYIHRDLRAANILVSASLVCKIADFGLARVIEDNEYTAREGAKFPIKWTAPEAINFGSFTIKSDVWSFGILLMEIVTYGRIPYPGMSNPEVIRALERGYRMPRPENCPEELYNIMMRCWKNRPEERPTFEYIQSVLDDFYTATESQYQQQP
Protocol: as §1, with “Specific” for “The biochemical kinase assay was performed at Reaction Biology Corporation (www.reactionbiology.com, Malvern, Pa.) following the procedures described in the reference (Anastassiadis T, et al Nat Biotechnol. 2011, 29, 1039). Specific”

T1 sequence (P07949 29-1114 A883F): as the sequence (P07949 29-1114 E762Q) above, with Q734E, A855F counted along it

IC50 (RET (A883F)): 1.2 nM
IC50 (RET (E762Q)): 1 nM
IC50 (RET (G691S)): 1.8 nM
IC50 (RET (L790F)): 0.4 nM
IC50 (RET (M918T)): 0.3 nM
IC50 (RET (R749T)): 0.8 nM
IC50 (RET (R813Q)): 1.7 nM
IC50 (RET (S891A)): 0.2 nM
IC50 (RET (S904A)): 0.9 nM
IC50 (RET (S904F)): 0.5 nM
IC50 (RET (V778I)): 0.1 nM
IC50 (RET (V804E)): > 1000 nM
IC50 (RET (V804L)): 6.2 nM
IC50 (RET (V804M)): 8.1 nM
IC50 (RET (Y791F)): 0.4 nM
IC50 (RET (Y806H)): 2.6 nM
IC50 (RET-CCDC6 (PTC1)): 0.5 nM
IC50 (FYN): 1.9 nM
IC50 (HCK): 2.7 nM
SMILES: C[C@H]1CNC(=O)c2cnn3cc4c(nc23)N(Cc2cc(F)cnc2O1)[C@@H]1CCC[C@@H]1O4 [Compound I, (3aR,11S,20aS)-7-fluoro-11-methyl-2,3,3a,12,13,20a-hexahydro-1H,5H-17,19-(metheno)cyclopenta[5,6][1,4]oxazino[3,4-i]pyrazolo[4,3-f]pyrido[3,2-l][1,4,8,10]oxatriazacyclotridecin-14(11H)-one]
